{"source": "ChEMBL document CHEMBL5465560", "about": "“Selectivity Literature for EUbOPEN Chemogenomic Library” (2024)", "key": {"[1]": {"molecular_target": "Death-associated protein kinase 1 (Homo sapiens, UniProt P53355)", "sequence (P53355 whole entry, looked up)": "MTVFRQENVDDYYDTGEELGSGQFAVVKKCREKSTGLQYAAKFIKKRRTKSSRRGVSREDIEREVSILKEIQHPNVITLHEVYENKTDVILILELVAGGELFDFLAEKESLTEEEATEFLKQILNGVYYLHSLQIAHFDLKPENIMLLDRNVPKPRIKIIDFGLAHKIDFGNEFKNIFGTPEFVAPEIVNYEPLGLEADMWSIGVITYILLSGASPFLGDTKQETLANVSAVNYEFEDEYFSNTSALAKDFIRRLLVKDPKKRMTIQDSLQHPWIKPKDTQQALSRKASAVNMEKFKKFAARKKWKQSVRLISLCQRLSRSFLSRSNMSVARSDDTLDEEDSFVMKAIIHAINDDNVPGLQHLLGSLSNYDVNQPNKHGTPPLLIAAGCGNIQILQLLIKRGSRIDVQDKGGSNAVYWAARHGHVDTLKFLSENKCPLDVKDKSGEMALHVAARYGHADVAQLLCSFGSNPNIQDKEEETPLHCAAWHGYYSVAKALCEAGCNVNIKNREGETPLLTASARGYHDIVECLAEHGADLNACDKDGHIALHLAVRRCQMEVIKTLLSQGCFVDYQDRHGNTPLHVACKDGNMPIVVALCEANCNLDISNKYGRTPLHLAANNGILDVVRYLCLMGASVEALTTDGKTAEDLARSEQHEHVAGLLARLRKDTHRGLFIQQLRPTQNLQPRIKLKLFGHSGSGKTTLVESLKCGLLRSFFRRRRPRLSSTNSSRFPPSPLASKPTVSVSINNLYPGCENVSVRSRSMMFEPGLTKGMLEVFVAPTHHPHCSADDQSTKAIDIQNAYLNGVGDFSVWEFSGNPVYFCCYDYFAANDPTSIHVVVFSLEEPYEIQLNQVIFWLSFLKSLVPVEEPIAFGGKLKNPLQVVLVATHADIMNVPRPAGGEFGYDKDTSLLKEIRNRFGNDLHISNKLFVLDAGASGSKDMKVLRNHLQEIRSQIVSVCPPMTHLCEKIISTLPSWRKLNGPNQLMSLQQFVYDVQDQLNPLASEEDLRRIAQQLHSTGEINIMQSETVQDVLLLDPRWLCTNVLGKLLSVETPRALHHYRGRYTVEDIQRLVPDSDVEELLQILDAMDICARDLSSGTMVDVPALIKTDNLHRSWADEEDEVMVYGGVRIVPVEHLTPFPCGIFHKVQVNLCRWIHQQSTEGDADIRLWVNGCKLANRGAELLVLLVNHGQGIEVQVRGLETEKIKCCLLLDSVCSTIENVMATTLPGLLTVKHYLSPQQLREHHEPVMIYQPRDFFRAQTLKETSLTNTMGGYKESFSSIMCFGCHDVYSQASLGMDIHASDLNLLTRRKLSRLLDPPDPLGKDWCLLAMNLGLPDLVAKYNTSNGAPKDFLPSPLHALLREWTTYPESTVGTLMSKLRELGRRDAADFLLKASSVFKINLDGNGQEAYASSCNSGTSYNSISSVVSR", "test": "Selectivity interaction (KinomeScan (DiscoverX)) EUB0000045b DAPK1"}, "[2]": {"molecular_target": "T1, Cytoplasmic tyrosine-protein kinase BMX (Homo sapiens) (UniProt P51813)", "T1 sequence (whole entry)": "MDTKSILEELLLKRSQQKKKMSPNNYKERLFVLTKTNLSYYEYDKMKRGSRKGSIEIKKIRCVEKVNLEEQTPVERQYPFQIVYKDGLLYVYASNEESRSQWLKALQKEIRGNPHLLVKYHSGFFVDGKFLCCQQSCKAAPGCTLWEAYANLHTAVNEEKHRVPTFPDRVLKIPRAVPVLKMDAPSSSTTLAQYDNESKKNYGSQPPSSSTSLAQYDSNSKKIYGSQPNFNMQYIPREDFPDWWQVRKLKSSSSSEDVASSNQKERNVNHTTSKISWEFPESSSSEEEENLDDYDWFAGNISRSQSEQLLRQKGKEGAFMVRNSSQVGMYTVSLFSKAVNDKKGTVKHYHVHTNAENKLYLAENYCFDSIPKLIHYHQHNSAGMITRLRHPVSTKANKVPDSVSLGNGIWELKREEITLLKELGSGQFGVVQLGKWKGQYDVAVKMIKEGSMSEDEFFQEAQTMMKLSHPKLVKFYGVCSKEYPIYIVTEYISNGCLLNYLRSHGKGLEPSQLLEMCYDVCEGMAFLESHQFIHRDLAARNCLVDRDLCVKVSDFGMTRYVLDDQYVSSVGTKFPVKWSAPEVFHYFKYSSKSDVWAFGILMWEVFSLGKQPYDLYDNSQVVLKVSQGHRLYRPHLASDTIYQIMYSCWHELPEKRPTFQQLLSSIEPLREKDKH", "test": "Selectivity interaction (KinomeScan (DiscoverX)) EUB0000045b BMX"}, "[3]": {"molecular_target": "Interleukin-1 receptor-associated kinase 1 (Homo sapiens) (UniProt P51617)", "sequence (P51617 whole entry, looked up)": "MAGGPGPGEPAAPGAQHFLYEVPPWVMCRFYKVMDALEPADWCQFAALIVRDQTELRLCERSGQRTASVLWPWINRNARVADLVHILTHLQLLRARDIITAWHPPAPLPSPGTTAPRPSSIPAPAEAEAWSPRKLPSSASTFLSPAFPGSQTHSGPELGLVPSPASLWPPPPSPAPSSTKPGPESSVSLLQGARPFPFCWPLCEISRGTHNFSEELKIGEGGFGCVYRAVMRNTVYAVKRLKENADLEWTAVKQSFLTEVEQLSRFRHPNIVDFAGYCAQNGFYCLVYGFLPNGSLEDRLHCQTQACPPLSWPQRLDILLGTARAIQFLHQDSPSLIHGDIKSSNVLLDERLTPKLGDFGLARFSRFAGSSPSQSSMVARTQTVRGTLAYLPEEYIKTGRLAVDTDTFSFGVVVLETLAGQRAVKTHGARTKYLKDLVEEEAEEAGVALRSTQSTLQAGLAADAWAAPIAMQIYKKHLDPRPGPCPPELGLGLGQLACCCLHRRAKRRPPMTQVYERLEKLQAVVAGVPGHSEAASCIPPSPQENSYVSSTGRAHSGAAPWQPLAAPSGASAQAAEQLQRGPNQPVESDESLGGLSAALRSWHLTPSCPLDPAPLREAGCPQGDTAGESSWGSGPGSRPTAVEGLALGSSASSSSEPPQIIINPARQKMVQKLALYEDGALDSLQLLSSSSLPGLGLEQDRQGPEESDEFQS", "test": "Selectivity interaction (KinomeScan (DiscoverX)) EUB0000695a IRAK1", "details": "at 100 nM"}, "[4]": {"molecular_target": "Mitogen-activated protein kinase 8 (Homo sapiens, UniProt P45983)", "sequence (P45983 whole entry)": "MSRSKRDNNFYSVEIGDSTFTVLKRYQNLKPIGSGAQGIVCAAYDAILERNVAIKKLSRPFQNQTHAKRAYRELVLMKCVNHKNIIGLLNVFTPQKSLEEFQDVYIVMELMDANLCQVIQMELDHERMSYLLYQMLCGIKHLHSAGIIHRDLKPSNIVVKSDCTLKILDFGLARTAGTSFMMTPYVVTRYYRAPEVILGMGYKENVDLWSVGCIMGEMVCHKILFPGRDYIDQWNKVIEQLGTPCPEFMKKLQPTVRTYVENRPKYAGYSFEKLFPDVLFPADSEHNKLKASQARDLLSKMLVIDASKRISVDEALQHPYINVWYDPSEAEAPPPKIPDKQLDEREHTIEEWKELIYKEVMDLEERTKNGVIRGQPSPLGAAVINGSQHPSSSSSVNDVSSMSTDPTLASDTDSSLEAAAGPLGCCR", "test": "Selectivity interaction (KinomeScan (DiscoverX)) EUB0000666a MAPK8", "details": "at 10 µM"}, "[5]": {"molecular_target": "T2, Cyclin-dependent kinase-like 2 (Homo sapiens) (UniProt Q92772)", "T2 sequence (whole entry)": "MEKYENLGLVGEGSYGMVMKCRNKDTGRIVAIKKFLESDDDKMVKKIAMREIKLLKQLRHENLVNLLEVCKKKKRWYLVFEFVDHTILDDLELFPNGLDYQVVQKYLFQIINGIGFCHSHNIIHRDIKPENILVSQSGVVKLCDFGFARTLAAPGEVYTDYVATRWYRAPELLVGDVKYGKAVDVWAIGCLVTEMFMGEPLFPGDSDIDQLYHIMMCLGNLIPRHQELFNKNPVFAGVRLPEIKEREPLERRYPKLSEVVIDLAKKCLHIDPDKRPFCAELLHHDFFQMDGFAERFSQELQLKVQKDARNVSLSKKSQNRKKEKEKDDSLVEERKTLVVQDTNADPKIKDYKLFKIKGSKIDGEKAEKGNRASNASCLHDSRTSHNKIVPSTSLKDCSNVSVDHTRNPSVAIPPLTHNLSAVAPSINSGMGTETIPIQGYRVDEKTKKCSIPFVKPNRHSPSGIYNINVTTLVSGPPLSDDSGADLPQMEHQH", "test": "Selectivity interaction (KinomeScan (DiscoverX)) EUB0001049a CDKL2", "details": "at 1 µM"}, "[6]": {"molecular_target": "T3, Tyrosine-protein kinase JAK1 (Homo sapiens, UniProt P23458)", "T3 sequence (P23458 whole entry)": "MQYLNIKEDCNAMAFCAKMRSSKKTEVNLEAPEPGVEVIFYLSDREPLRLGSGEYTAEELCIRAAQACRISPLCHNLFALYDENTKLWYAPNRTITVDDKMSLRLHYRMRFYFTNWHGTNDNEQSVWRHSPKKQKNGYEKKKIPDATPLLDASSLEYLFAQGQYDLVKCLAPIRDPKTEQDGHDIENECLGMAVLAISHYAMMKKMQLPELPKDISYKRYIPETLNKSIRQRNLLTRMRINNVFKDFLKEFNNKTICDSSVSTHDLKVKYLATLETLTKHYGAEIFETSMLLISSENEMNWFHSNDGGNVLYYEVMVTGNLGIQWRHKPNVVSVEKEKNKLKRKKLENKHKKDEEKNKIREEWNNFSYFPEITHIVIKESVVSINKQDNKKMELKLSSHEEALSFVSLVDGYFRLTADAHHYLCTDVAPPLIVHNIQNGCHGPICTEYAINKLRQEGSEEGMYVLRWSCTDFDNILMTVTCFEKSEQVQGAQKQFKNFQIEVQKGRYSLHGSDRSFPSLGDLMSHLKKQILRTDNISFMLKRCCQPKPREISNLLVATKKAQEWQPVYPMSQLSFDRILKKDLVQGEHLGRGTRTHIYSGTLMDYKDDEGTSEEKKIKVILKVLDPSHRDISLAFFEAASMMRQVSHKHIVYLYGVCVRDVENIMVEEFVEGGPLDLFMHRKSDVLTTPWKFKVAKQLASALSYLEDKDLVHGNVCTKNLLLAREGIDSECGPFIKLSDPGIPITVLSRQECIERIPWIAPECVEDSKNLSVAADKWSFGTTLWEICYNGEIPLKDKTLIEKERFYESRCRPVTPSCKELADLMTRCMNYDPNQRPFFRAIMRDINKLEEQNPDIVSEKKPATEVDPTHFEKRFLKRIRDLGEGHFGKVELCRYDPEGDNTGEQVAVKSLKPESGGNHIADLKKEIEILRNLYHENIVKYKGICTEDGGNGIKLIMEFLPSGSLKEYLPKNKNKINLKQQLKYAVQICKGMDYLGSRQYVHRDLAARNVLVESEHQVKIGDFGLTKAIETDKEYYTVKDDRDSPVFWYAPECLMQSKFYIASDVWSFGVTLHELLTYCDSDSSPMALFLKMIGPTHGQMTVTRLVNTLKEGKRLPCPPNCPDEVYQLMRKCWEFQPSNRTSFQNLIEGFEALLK", "test": "Selectivity interaction (KinomeScan (DiscoverX)) EUB0001619a JAK1", "details": "at 1 µM"}, "[7]": {"molecular_target": "T4, Ankyrin repeat and protein kinase domain-containing protein 1 (Homo sapiens) (UniProt Q8NFD2)", "T4 sequence (whole entry)": "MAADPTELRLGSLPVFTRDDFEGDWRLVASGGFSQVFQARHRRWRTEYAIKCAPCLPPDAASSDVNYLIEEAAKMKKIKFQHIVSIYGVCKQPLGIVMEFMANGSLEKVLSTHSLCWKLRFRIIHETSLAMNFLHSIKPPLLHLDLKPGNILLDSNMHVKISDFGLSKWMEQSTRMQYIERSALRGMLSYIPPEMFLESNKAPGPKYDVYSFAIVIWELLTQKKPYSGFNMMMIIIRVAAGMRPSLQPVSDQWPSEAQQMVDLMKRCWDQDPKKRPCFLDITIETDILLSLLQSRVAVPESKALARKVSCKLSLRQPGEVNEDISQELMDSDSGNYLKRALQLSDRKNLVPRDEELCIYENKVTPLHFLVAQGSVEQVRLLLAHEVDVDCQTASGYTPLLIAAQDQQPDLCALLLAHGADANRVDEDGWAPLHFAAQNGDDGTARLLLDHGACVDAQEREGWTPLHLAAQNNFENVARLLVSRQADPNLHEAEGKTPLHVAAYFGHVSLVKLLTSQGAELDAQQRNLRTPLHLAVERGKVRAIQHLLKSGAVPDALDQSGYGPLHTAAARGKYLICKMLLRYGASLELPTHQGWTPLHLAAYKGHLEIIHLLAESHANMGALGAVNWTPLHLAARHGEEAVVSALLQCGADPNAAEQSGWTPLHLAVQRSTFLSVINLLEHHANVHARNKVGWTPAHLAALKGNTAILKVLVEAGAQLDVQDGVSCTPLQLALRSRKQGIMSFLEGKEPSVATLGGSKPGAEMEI", "test": "Selectivity interaction (KinomeScan (DiscoverX)) EUB0000618a ANKK1", "details": "at 10 µM"}, "[8]": {"molecular_target": "Vascular endothelial growth factor receptor 2 (Homo sapiens, UniProt P35968)", "sequence (P35968 whole entry)": "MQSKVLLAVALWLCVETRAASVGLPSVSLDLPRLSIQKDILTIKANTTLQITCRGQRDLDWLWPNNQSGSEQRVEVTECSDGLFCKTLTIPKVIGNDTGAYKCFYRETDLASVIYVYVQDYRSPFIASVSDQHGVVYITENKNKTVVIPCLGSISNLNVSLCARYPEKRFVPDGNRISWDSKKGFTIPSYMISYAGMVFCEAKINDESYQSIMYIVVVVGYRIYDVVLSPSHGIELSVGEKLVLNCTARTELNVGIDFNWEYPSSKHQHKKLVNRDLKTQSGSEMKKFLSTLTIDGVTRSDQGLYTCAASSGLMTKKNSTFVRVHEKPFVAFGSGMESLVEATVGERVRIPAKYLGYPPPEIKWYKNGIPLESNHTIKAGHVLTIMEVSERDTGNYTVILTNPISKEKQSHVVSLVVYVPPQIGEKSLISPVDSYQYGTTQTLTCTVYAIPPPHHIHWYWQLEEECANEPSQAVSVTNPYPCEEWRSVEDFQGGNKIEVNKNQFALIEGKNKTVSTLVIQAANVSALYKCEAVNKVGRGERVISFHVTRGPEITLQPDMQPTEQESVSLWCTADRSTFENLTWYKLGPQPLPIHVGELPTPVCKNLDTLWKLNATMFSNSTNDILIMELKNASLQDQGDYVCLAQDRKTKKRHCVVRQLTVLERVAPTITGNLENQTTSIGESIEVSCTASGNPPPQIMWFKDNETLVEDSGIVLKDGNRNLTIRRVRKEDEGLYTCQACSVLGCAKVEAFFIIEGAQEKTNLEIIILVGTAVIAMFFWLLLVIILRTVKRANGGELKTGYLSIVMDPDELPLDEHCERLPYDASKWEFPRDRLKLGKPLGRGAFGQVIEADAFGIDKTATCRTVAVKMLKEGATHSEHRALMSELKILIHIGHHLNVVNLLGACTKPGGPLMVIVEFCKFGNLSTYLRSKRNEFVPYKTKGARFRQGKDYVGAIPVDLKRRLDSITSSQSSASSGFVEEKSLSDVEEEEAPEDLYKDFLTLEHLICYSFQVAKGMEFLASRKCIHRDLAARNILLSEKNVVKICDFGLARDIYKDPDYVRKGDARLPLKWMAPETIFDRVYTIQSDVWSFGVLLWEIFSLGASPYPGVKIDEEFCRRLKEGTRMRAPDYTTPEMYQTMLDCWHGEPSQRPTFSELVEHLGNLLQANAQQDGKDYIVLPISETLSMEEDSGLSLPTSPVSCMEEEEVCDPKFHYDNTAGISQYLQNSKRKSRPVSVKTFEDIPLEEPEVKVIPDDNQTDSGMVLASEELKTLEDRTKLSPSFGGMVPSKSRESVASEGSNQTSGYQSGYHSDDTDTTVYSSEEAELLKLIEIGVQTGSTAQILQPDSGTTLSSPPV", "test": "Selectivity interaction (KinomeScan (DiscoverX)) EUB0000618a KDR", "details": "at 10 µM"}, "[9]": {"molecular_target": "T3, Tyrosine-protein kinase JAK1", "test": "Selectivity interaction (KinomeScan (DiscoverX)) EUB0000618a JAK1", "details": "at 10 µM"}}}
{"smiles": "C=CC(=O)Nc1cc(-n2c(=O)ccc3cnc4ccc(-c5ccc(NS(C)(=O)=O)cc5)cc4c32)ccc1C", "values": [{"measurement": "% of control", "setting": "[1]; at 1 µM", "result": 96, "unit": "%"}, {"measurement": "% of control", "setting": "[1]; at 10 µM", "result": 61, "unit": "%"}, {"measurement": "% of control", "setting": "[2]; at 1 µM", "result": 29, "unit": "%"}, {"measurement": "% of control", "setting": "[2]; at 10 µM", "result": 6, "unit": "%"}]}
{"smiles": "Cc1cc(F)c(C(=O)Nc2cccc(-c3nncn3C(C)C)n2)cc1-n1cnc(C2CC2)c1", "values": [{"measurement": "% of control", "setting": "[3]", "result": 96, "unit": "%"}]}
{"smiles": "O=C(NOC[C@H](O)CO)c1ccc(F)c(F)c1Nc1ccc(I)cc1F", "values": [{"measurement": "% of control", "setting": "[4]", "result": 92, "unit": "%"}]}
{"smiles": "COc1cc(Nc2nc(C)cc(-c3cnn4nc(OC)ccc34)n2)cc(C(F)(F)F)c1", "values": [{"measurement": "% of control", "setting": "[5]", "result": 100, "unit": "%"}]}
{"smiles": "N#Cc1cccc(-c2c[nH]c3ncnc(N4CCOCC4)c23)c1", "values": [{"measurement": "% of control", "setting": "[6]", "result": 94, "unit": "%"}]}
{"smiles": "O[C@H]1CC[C@H](Nc2ncc3nc(Nc4c(F)cc(F)cc4F)n([C@H]4CCOC4)c3n2)CC1", "values": [{"measurement": "% of control", "setting": "[7]", "result": 100, "unit": "%"}, {"measurement": "% of control", "setting": "[8]", "result": 100, "unit": "%"}, {"measurement": "% of control", "setting": "[9]", "result": 70, "unit": "%"}]}
